Laboratory results published in ChEMBL document CHEMBL1152844, “Synthesis and anti-HIV studies of 2- and 3-adamantyl-substituted thiazolidin-4-ones” (Eur J Med Chem, 2009).
Active and inactive are the calls of the source. The rule behind the calls is not given here.

What was measured:
[1] = system: Human immunodeficiency virus 2; experiment: Antiviral activity against HIV2 ROD infected in human CEM cells assessed as inhibition of virus-induced cytopathicity after 4 days; format: functional, organism-based; settings: Human immunodeficiency virus 2, ROD, CCRF-CEM, 96 h
Coxsackievirus B4 [2] = experiment: Antiviral activity against Coxsackievirus B4 infected in african green monkey Vero cells; format: functional, organism-based
[3] = system: Mammalian orthoreovirus 1; experiment: Antiviral activity against Reovirus 1 infected in african green monkey Vero cells; format: functional, organism-based
Human respirovirus 3 = experiment: Antiviral activity against Parainfluenza virus type 3 infected in african green monkey Vero cells; format: functional, organism-based
Punta Toro virus = experiment: Antiviral activity against Punta Toro virus infected in african green monkey Vero cells; format: functional, organism-based
Human alphaherpesvirus 1 = experiment: Antiviral activity against Herpes simplex virus type 1 infected in HEL cells; format: functional, organism-based
Influenza A virus [4] = experiment: Antiviral activity against Influenza virus type A H1N1 infected in MDCK cells; format: functional, organism-based
[5] = system: Human immunodeficiency virus 1; experiment: Antiviral activity against HIV1 3B infected in human CEM cells assessed as inhibition of virus-induced cytopathicity after 4 days; format: functional, organism-based; settings: Human immunodeficiency virus 1, 3B, CCRF-CEM, 96 h
Vaccinia virus = experiment: Antiviral activity against Vaccinia virus infected in HEL cells; format: functional, organism-based; settings: Orthopoxvirus vaccinia
Influenza B virus = experiment: Antiviral activity against Influenza virus type B infected in MDCK cells; format: functional, organism-based
Feline coronavirus = experiment: Antiviral activity against Feline coronavirus infected in crandel feline kidney cells; format: functional, organism-based
CCRF-CEM = experiment: (§1) Cytotoxicity against HIV-infected human CEM cells; format: cell-based; settings: ccrf-cem
[6] = system: Vesicular stomatitis virus; experiment: Antiviral activity against Vesicular stomatitis virus infected in HEL cells; format: functional, organism-based
Human alphaherpesvirus 2 = experiment: Antiviral activity against Herpes simplex virus type 2 infected in HEL cells; format: functional, organism-based
[7] = biological target: T1, Human immunodeficiency virus type 1 reverse transcriptase (Human immunodeficiency virus 1, UniProt Q72547); experiment: Inhibition of HIV1 3B reverse transcriptase after 30 mins
Sindbis virus = experiment: Antiviral activity against Sindbis virus infected in african green monkey Vero cells; format: functional, organism-based
[8] = Inhibition of HIV2 ROD reverse transcriptase after 30 mins; set-up: species or system Human immunodeficiency virus 2
Coxsackievirus B4 [9] = experiment: Antiviral activity against Coxsackievirus B4 infected in human HeLa cells; format: functional, organism-based
Influenza A virus [10] = experiment: Antiviral activity against Influenza virus type A H3N2 infected in MDCK cells; format: functional, organism-based
[11] = system: Respiratory syncytial virus; experiment: Antiviral activity against Respiratory syncytial virus infected in human HeLa cells; format: functional, organism-based
[12] = system: Vesicular stomatitis virus; experiment: Antiviral activity against Vesicular stomatitis virus infected in human HeLa cells; format: functional, organism-based
[13] = Selectivity index, ratio of CC50 for human CEM cells to EC50 for HIV1 3B; format: toxicity, cell-based, CCRF-CEM; settings: read-out: Ratio CC50/EC50
[14] = as §1; format: cell-based, CCRF-CEM; settings: HIV-infected CEM (CCRF-CEM) cells
[15] = biological target: T1, Human immunodeficiency virus type 1 reverse transcriptase; experiment: Activity at HIV1 non-nucleoside reverse transcriptase
[16] = biological target: Human immunodeficiency virus type 1 reverse transcriptase (Human immunodeficiency virus 1) (UniProt Q72547); experiment: Ratio of Ki to Km for HIV1 non-nucleoside reverse transcriptase

Structure (SMILES)	EC50 [1]	Activity (Coxsackievirus B4 [2])	Activity [3]	Activity (Human respirovirus 3)	Activity (Punta Toro virus)	Activity (Human alphaherpesvirus 1)	Activity (Influenza A virus [4])	EC50 [5]	Activity (Vaccinia virus)	Activity (Influenza B virus)	Activity (Feline coronavirus)	CC50 (CCRF-CEM)	Activity [6]	Activity (Human alphaherpesvirus 2)	Activity (Sindbis virus)	Activity (Coxsackievirus B4 [9])	Activity (Influenza A virus [10])	Activity [11]	Activity [12]	selectivity ratio [13]	other results
O=C1CSC(c2c(Cl)cccc2Cl)N1CCC12CC3CC(CC(C3)C1)C2 (stereo unspecified)	≥ 9.7 µM	inactive	inactive	inactive	inactive	inactive	inactive	3.4 µM	inactive	inactive	inactive	19 µM	inactive	inactive	inactive	inactive	inactive	inactive	inactive	5.5	IC50 [7]: 226 µM; IC50 [8]: > 600 µM
CCN(CC)CCN1C(=O)CSC1CC12CC3CC(CC(C3)C1)C2 (stereo unspecified)	46 µM	inactive	inactive	inactive	inactive	inactive	inactive	30.8 µM	inactive	inactive	inactive	–	inactive	inactive	inactive	inactive	inactive	inactive	inactive	< 1.4	CC50 [14]: 43 µM
O=C1CSC(c2c(Cl)cccc2Cl)N1CC12CC3CC(CC(C3)C1)C2 (stereo unspecified)	≥ 10.1 µM	inactive	inactive	inactive	inactive	inactive	inactive	1 µM	inactive	inactive	inactive	21.1 µM	inactive	inactive	inactive	inactive	inactive	inactive	inactive	21	IC50 [7]: 42.9 µM; IC50 [8]: ≥ 600 µM
O=C1CSC(CC23CC4CC(CC(C4)C2)C3)N1CCN1CCCC1 (stereo unspecified)	≥ 57 µM	inactive	inactive	inactive	inactive	inactive	inactive	48.7 µM	inactive	inactive	inactive	77 µM	inactive	inactive	inactive	inactive	inactive	inactive	inactive	1.6	–
O=C1CSC(c2c(F)cccc2F)N1CCC12CC3CC(CC(C3)C1)C2 (stereo unspecified)	≥ 4 µM	inactive	inactive	inactive	inactive	inactive	inactive	2 µM	inactive	inactive	inactive	7.9 µM	inactive	inactive	inactive	inactive	inactive	inactive	inactive	4	IC50 [7]: 31.7 µM; IC50 [8]: ≥ 600 µM
Cc1ccnc(N2C(=O)CSC2C23CC4CC(CC(C4)C2)C3)n1 (stereo unspecified)	> 60.7 µM	inactive	inactive	inactive	inactive	inactive	inactive	4.5 µM	inactive	inactive	inactive	136 µM	inactive	inactive	inactive	inactive	inactive	inactive	inactive	30	–
Cc1cccc(N2C(=O)CSC2CC23CC4CC(CC(C4)C2)C3)n1 (stereo unspecified)	21.9 µM	inactive	inactive	inactive	inactive	inactive	inactive	17.8 µM	inactive	inactive	inactive	35 µM	inactive	inactive	inactive	inactive	inactive	inactive	inactive	1.9	–
Cc1cc(C)nc(N2C(=O)CS[C@@H]2C23CC4CC(CC(C4)C2)C3)c1	–	inactive	inactive	inactive	inactive	inactive	inactive	–	inactive	inactive	inactive	–	inactive	inactive	inactive	inactive	inactive	inactive	inactive	–	IC50 [7]: 13.4 µM; IC50 [8]: > 600 µM
Cc1ccnc(N2C(=O)CSC2CC23CC4CC(CC(C4)C2)C3)n1 (stereo unspecified)	23.5 µM	inactive	inactive	inactive	inactive	inactive	inactive	≥ 11.6 µM	inactive	inactive	inactive	27.3 µM	inactive	inactive	inactive	inactive	inactive	inactive	inactive	< 2.3	–
COc1cc(C2SCC(=O)N2CCC23CC4CC(CC(C4)C2)C3)cc(OC)c1OC (stereo unspecified)	6.5 µM	inactive	inactive	inactive	inactive	inactive	inactive	7.8 µM	inactive	inactive	inactive	11.3 µM	inactive	inactive	inactive	inactive	inactive	inactive	inactive	1.4	–
O=C1CSC(c2c(F)cccc2F)N1CC12CC3CC(CC(C3)C1)C2 (stereo unspecified)	35.7 µM	inactive	inactive	inactive	inactive	inactive	inactive	11 µM	inactive	inactive	inactive	> 275 µM	inactive	inactive	inactive	inactive	inactive	inactive	inactive	> 25	IC50 [7]: 495 µM; IC50 [8]: > 600 µM
Cc1cc(C)nc(N2C(=O)CSC2C23CC4CC(CC(C4)C2)C3)c1 (racemic)	> 12 µM	inactive	inactive	inactive	inactive	inactive	inactive	–	inactive	inactive	inactive	–	inactive	inactive	inactive	inactive	inactive	inactive	inactive	120	Ki [15]: 12 µM; Ratio [16]: 5.5
